How the values were obtained:
[1] = system: CCRF-CEM; experiment: Growth inhibition of human CCRF-CEM cells measured after 48 hrs by SRB assay; type: functional
[2] = system: HL-60(TB); experiment: Growth inhibition of human HL-60(TB) cells measured after 48 hrs by SRB assay; type: functional
[3] = system: K562; experiment: Growth inhibition of human K562 cells measured after 48 hrs by SRB assay; type: functional
[4] = system: MOLT-4; experiment: Growth inhibition of human MOLT-4 cells measured after 48 hrs by SRB assay; type: functional
[5] = system: RPMI-8226; experiment: Growth inhibition of human RPMI-8226 cells measured after 48 hrs by SRB assay; type: functional
[6] = system: SR; experiment: Growth inhibition of human SR cells measured after 48 hrs by SRB assay; type: functional
[7] = system: A549; experiment: Growth inhibition of human A549 cells measured after 48 hrs by SRB assay; type: functional
[8] = system: EKVX; experiment: Growth inhibition of human EKVX cells measured after 48 hrs by SRB assay; type: functional
[9] = system: HOP-62; experiment: Growth inhibition of human HOP-62 cells measured after 48 hrs by SRB assay; type: functional
[10] = system: HOP-92; experiment: Growth inhibition of human HOP-92 cells measured after 48 hrs by SRB assay; type: functional
[11] = system: NCI-H226; experiment: Growth inhibition of human NCI-H226 cells measured after 48 hrs by SRB assay; type: functional
[12] = system: NCI-H23; experiment: Growth inhibition of human NCI-H23 cells measured after 48 hrs by SRB assay; type: functional
[13] = system: NCI-H322M; experiment: Growth inhibition of human NCI-H322M cells measured after 48 hrs by SRB assay; type: functional
[14] = system: NCI-H460; experiment: Growth inhibition of human NCI-H460 cells measured after 48 hrs by SRB assay; type: functional
[15] = system: NCI-H522; experiment: Growth inhibition of human NCI-H522 cells measured after 48 hrs by SRB assay; type: functional
[16] = system: COLO 205; experiment: Growth inhibition of human COLO 205 cells measured after 48 hrs by SRB assay; type: functional
[17] = system: HCC 2998; experiment: Growth inhibition of human HCC 2998 cells measured after 48 hrs by SRB assay; type: functional
[18] = system: HCT-116; experiment: Growth inhibition of human HCT-116 cells measured after 48 hrs by SRB assay; type: functional
[19] = system: HCT-15; experiment: Growth inhibition of human HCT-15 cells measured after 48 hrs by SRB assay; type: functional
[20] = system: HT-29; experiment: Growth inhibition of human HT-29 cells measured after 48 hrs by SRB assay; type: functional
[21] = system: KM12; experiment: Growth inhibition of human KM12 cells measured after 48 hrs by SRB assay; type: functional
[22] = system: SW-620; experiment: Growth inhibition of human SW-620 cells measured after 48 hrs by SRB assay; type: functional
[23] = system: SF-295; experiment: Growth inhibition of human SF-295 cells measured after 48 hrs by SRB assay; type: functional
[24] = system: SF-539; experiment: Growth inhibition of human SF-539 cells measured after 48 hrs by SRB assay; type: functional
[25] = system: SNB-19; experiment: Growth inhibition of human SNB-19 cells measured after 48 hrs by SRB assay; type: functional
[26] = system: SNB-75; experiment: Growth inhibition of human SNB-75 cells measured after 48 hrs by SRB assay; type: functional
[27] = system: U-251; experiment: Growth inhibition of human U-251 cells measured after 48 hrs by SRB assay; type: functional
[28] = system: LOX IMVI; experiment: Growth inhibition of human LOX IMVI cells measured after 48 hrs by SRB assay; type: functional
[29] = system: Malme-3M; experiment: Growth inhibition of human Malme-3M cells measured after 48 hrs by SRB assay; type: functional
[30] = system: M14; experiment: Growth inhibition of human M14 cells measured after 48 hrs by SRB assay; type: functional
[31] = system: MDA-MB-435; experiment: Growth inhibition of human MDA-MB-435 cells measured after 48 hrs by SRB assay; type: functional
[32] = system: SK-MEL-2; experiment: Growth inhibition of human SK-MEL-2 cells measured after 48 hrs by SRB assay; type: functional
[33] = system: SK-MEL-28; experiment: Growth inhibition of human SK-MEL-28 cells measured after 48 hrs by SRB assay; type: functional
[34] = system: SK-MEL-5; experiment: Growth inhibition of human SK-MEL-5 cells measured after 48 hrs by SRB assay; type: functional
[35] = system: UACC-257; experiment: Growth inhibition of human UACC-257 cells measured after 48 hrs by SRB assay; type: functional
[36] = system: UACC-62; experiment: Growth inhibition of human UACC-62 cells measured after 48 hrs by SRB assay; type: functional
[37] = system: IGROV-1; experiment: Growth inhibition of human IGROV-1 cells measured after 48 hrs by SRB assay; type: functional
[38] = system: OVCAR-3; experiment: Growth inhibition of human OVCAR-3 cells measured after 48 hrs by SRB assay; type: functional
[39] = system: OVCAR-4; experiment: Growth inhibition of human OVCAR-4 cells measured after 48 hrs by SRB assay; type: functional
[40] = system: OVCAR-5; experiment: Growth inhibition of human OVCAR-5 cells measured after 48 hrs by SRB assay; type: functional
[41] = system: OVCAR-8; experiment: Growth inhibition of human OVCAR-8 cells measured after 48 hrs by SRB assay; type: functional
[42] = system: NCI/ADR-RES; experiment: Growth inhibition of human NCI/ADR-RES cells measured after 48 hrs by SRB assay; type: functional
[43] = system: SK-OV-3; experiment: Growth inhibition of human SK-OV-3 cells measured after 48 hrs by SRB assay; type: functional
[44] = system: 786-0; experiment: Growth inhibition of human 786-0 cells measured after 48 hrs by SRB assay; type: functional
[45] = system: A498; experiment: Growth inhibition of human A498 cells measured after 48 hrs by SRB assay; type: functional
[46] = system: ACHN; experiment: Growth inhibition of human ACHN cells measured after 48 hrs by SRB assay; type: functional
[47] = system: CAKI-1; experiment: Growth inhibition of human CAKI-1 cells measured after 48 hrs by SRB assay; type: functional
[48] = system: RXF 393; experiment: Growth inhibition of human RXF 393 cells measured after 48 hrs by SRB assay; type: functional
[49] = system: SN12C; experiment: Growth inhibition of human SN12C cells measured after 48 hrs by SRB assay; type: functional
[50] = system: TK-10; experiment: Growth inhibition of human TK-10 cells measured after 48 hrs by SRB assay; type: functional
[51] = system: UO-31; experiment: Growth inhibition of human UO-31 cells measured after 48 hrs by SRB assay; type: functional
[52] = system: PC-3; experiment: Growth inhibition of human PC-3 cells measured after 48 hrs by SRB assay; type: functional
[53] = system: DU-145; experiment: Growth inhibition of human DU-145 cells measured after 48 hrs by SRB assay; type: functional
[54] = system: MCF7; experiment: Growth inhibition of human MCF7 cells measured after 48 hrs by SRB assay; type: functional
[55] = system: MDA-MB-231; experiment: Growth inhibition of human MDA-MB-231 cells measured after 48 hrs by SRB assay; type: functional
[56] = system: Hs-578T; experiment: Growth inhibition of human Hs-578T cells measured after 48 hrs by SRB assay; type: functional
[57] = system: BT-549; experiment: Growth inhibition of human BT-549 cells measured after 48 hrs by SRB assay; type: functional
[58] = system: T47D; experiment: Growth inhibition of human T47D cells measured after 48 hrs by SRB assay; type: functional
[59] = system: Panel NCI-60 (60 carcinoma cell lines); experiment: Growth inhibition of human Panel NCI-60 (60 carcinoma cell lines) cells at 10 uM measured after 48 hrs by SRB assay relative to control; type: functional; details: read-out: GI
[60] = target: T1, RAF proto-oncogene serine/threonine-protein kinase (Homo sapiens, UniProt P04049); experiment: Inhibition of human CRAF using MEK1 (K97R) as substrate in presence of [gamma-33P]ATP by scintillation counting method
T1 sequence (P04049 whole entry): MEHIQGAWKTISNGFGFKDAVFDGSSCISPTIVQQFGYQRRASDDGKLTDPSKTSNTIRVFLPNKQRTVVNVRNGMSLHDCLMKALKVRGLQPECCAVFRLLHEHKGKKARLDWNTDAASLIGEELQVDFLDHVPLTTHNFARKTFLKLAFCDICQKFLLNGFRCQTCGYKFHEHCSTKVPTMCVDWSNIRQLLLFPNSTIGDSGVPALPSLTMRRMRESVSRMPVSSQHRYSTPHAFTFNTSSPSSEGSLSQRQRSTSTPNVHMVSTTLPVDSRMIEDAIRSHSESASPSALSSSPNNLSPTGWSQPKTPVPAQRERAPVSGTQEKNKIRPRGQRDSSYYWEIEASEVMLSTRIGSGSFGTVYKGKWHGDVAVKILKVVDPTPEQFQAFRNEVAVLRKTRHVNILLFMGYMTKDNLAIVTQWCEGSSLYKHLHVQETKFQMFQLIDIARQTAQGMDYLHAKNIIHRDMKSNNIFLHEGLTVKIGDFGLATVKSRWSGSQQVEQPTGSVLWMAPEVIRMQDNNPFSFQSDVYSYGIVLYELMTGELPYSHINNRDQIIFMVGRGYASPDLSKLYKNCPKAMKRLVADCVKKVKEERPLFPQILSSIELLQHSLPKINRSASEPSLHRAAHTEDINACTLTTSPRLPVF

[61] = target: T2, Serine/threonine-protein kinase B-raf (Homo sapiens, UniProt P15056); experiment: Inhibition of human BRAF using MEK1 (K97R) as substrate in presence of [gamma-33P]ATP by scintillation counting method
T2 sequence (P15056 whole entry): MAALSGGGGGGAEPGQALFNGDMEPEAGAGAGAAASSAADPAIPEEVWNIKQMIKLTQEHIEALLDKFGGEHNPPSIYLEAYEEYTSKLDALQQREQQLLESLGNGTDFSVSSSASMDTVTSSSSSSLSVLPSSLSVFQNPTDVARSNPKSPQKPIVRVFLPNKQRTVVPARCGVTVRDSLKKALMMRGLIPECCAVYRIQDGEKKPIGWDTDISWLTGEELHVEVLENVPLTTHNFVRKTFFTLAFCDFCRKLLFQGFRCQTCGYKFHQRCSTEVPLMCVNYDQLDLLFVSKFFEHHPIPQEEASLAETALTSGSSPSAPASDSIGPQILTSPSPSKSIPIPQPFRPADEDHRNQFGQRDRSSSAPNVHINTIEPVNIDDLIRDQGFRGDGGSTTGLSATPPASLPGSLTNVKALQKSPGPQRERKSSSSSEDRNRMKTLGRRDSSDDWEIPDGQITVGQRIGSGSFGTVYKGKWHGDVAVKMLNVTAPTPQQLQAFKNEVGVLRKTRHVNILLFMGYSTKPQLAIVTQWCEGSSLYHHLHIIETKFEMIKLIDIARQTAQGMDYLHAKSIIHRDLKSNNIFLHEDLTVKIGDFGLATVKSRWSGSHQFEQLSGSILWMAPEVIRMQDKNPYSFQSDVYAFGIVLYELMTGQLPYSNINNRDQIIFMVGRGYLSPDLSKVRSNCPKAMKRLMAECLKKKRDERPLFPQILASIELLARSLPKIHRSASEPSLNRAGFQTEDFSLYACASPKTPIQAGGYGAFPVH

[62] = target: Serine/threonine-protein kinase B-raf (Homo sapiens, UniProt P15056, V600E); experiment: Inhibition of human BRAF V600E mutant using MEK1 (K97R) as substrate in presence of [gamma-33P]ATP by scintillation counting method
Sequence of Serine/threonine-protein kinase B-raf (Homo sapiens, UniProt P15056, V600E) (P15056 2-766 V600E limits assumed): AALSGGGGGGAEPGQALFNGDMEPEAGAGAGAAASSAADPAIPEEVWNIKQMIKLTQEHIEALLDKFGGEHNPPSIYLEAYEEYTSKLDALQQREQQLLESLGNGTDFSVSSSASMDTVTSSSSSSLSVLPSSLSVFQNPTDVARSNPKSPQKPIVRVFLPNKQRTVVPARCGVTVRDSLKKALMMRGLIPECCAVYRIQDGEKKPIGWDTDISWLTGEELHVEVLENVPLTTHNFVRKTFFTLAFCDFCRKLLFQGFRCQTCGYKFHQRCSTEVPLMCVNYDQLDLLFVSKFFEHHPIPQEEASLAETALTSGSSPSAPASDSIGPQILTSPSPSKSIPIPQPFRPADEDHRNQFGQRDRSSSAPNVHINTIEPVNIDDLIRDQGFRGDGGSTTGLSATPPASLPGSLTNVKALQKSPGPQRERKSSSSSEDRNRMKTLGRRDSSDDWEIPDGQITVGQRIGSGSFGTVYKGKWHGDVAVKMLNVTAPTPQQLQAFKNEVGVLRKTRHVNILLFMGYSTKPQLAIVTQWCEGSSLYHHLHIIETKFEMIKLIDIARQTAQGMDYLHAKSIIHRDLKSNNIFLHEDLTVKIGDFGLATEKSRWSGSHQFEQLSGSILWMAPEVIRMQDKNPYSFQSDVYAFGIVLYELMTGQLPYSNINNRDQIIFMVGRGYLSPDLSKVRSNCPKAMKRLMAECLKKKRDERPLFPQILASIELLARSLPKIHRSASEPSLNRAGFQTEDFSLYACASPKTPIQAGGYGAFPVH

[63] = organism: Homo sapiens; experiment: Selectivity ratio of IC50 for inhibition of human BRAF V600E mutant to IC50 for inhibition of human CRAF
[64] = system: HT-29; experiment: Growth inhibition of human HT-29 cells at 10 uM measured after 48 hrs by SRB assay relative to control; type: functional; details: read-out: GI
[65] = target: T2, Serine/threonine-protein kinase B-raf; experiment: Inhibition of human BRAF at 10 uM using MEK1 (K97R) as substrate in presence of [gamma-33P]ATP by scintillation counting method relative to control
[66] = system: Serine/threonine-protein kinase B-raf (Homo sapiens), P15056 [V600E]; experiment: Inhibition of human BRAF V600E mutant at 10 uM using MEK1 (K97R) as substrate in presence of [gamma-33P]ATP by scintillation counting method relative to control
Sequence of Serine/threonine-protein kinase B-raf (Homo sapiens), P15056 [V600E] (P15056 whole entry V600E): as the sequence (P15056 whole entry) above, with V600E counted along it

[67] = target: T1, RAF proto-oncogene serine/threonine-protein kinase; experiment: Inhibition of human CRAF at 10 uM using MEK1 (K97R) as substrate in presence of [gamma-33P]ATP by scintillation counting method relative to control

Cc1ccc(NC(=O)c2ccc(CN3CCN(C)CC3)cc2)cc1Nc1nccc(-c2cccnc2)n1 [IMATINIB]
GI50 [1]: 17 µM | GI50 [2]: 13.5 µM | GI50 [3]: 0.02 µM | GI50 [4]: 5.13 µM | GI50 [5]: 6.05 µM | GI50 [6]: 7.14 µM | GI50 [7]: 24.5 µM | GI50 [8]: 26.2 µM | GI50 [9]: 21.5 µM | GI50 [10]: 13.3 µM | GI50 [11]: 18.1 µM | GI50 [12]: 15 µM | GI50 [13]: 22.8 µM | GI50 [14]: 16.2 µM | GI50 [15]: 16.4 µM | GI50 [16]: 17.6 µM | GI50 [17]: 21.2 µM | GI50 [18]: 12.6 µM | GI50 [19]: 19.9 µM | GI50 [20]: 3.97 µM | GI50 [21]: 18.8 µM | GI50 [22]: 23.4 µM | GI50 [23]: 19.8 µM | GI50 [24]: 10.6 µM | GI50 [25]: 38.6 µM | GI50 [26]: 20.3 µM | GI50 [27]: 18 µM | GI50 [28]: 18.1 µM | GI50 [29]: 16.3 µM | GI50 [30]: 19.3 µM | GI50 [31]: 17.9 µM | GI50 [32]: 25 µM | GI50 [33]: 14.6 µM | GI50 [34]: 12.1 µM | GI50 [35]: 21.1 µM | GI50 [36]: 19 µM | GI50 [37]: 21.2 µM | GI50 [38]: 34.2 µM | GI50 [39]: 20 µM | GI50 [40]: 0.58 µM | GI50 [41]: 27.7 µM | GI50 [42]: 23 µM | GI50 [43]: 28.9 µM | GI50 [44]: 16 µM | GI50 [45]: 22 µM | GI50 [46]: 25.2 µM | GI50 [47]: 34 µM | GI50 [48]: 15.1 µM | GI50 [49]: 33.2 µM | GI50 [50]: 26.9 µM | GI50 [51]: 22.3 µM | GI50 [52]: 21.4 µM | GI50 [53]: 18.8 µM | GI50 [54]: 18.2 µM | GI50 [55]: 18.7 µM | GI50 [56]: 14.6 µM | GI50 [57]: 16.1 µM | GI50 [58]: 19.9 µM

COc1cccc2nc(Nc3cccc(NC(=O)c4cc(N5CCOCC5)cc(C(F)(F)F)c4)c3)ccc12
inhibition of growth at 10 µM [59]: 38.3% | IC50 [60]: 0.616 µM | IC50 [61]: 5.87 µM | IC50 [62]: 1.49 µM | Ratio IC50 [63]: 2

COc1cccc2nc(Nc3cccc(NC(=O)c4ccc(N5CCOCC5)c(C(F)(F)F)c4)c3)ccc12
inhibition of growth at 10 µM [59]: 59% | inhibition of growth at 10 µM [64]: 87.2% | IC50 [60]: 1.44 µM | IC50 [61]: 40.9 µM | IC50 [62]: 4.57 µM | Ratio IC50 [63]: 2

COc1cc2cc(Oc3ccc(NC(=O)c4cc(C(F)(F)F)cc(C(F)(F)F)c4)cc3)c(C)nc2cc1OC
GI50 [5]: 1.57 µM | GI50 [10]: 1.82 µM | GI50 [18]: 1.56 µM | GI50 [23]: 1.64 µM | GI50 [34]: 2.76 µM | GI50 [39]: 4.53 µM | GI50 [45]: 1.13 µM | GI50 [52]: 1.66 µM | GI50 [57]: 3.02 µM | inhibition [65]: < 47% | inhibition [66]: < 47% | inhibition [67]: 76.7%

Source: ChEMBL document CHEMBL4706583, “2-Anilinoquinoline based arylamides as broad spectrum anticancer agents with B-RAF/C-RAF kinase inhibitory effects: Design, synthesis, in vitro cell-based and oncogenic kinase assessments” (Eur J Med Chem, 2020)
